The target in this experiment is T1, Human M4 (Homo sapiens, UniProt P08173).
T1 construct: expressed in transfected cells; host or cells: CHO-K1 (ATCC), co-transfected with chimeric G protein Gqi5
T1 sequence (P08173 1-479): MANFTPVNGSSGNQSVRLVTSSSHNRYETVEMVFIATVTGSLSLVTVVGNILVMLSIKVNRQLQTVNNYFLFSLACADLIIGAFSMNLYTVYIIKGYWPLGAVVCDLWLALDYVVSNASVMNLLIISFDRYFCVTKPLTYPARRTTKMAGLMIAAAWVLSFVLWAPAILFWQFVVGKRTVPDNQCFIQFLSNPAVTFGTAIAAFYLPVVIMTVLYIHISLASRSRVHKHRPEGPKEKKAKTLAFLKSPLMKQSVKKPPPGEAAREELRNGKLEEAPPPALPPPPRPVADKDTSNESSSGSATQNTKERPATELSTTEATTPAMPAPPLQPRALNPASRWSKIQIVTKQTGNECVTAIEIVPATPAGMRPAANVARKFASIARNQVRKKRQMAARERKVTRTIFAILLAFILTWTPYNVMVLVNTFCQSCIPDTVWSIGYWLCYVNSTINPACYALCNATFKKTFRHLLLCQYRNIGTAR
As to the kind of experiment: mAChR M4 cell-based functional assay (calcium flux, antagonism of EC80 acetylcholine response). The following applies: for IC50: concentration-dependent decrease of the response elicited by an EC80 concentration of acetylcholine. As to the method: Human or rat M4 cDNA, along with the chimeric G protein Gqi5, were transfected into Chinese hamster ovary (CHO-K1) cells purchased from the American Type Culture Collection using Lipofectamine2000. M4/Gqi5/CHO cells were grown in Ham's F-12 medium containing 10% heat-inactivated fetal bovine serum (FBS), 20 mM HEPES, 500 μg/mL G418 sulfate, and 200 μg/mL Hygromycin B.
For high throughput measurement of agonist-evoked increases in intracellular calcium, CHO-K1 cells stably expressing muscarinic receptors were plated in growth medium lacking G418 and hygromycin at 15,000 cells/20 μL/well in Greiner 384-well black-walled, tissue culture (TC)-treated, clear-bottom plates (VWR). Cells were incubated overnight at 37° C. and 5% CO2. The next day, cells were washed using an ELX 405 (BioTek) with assay buffer; the final volume was then aspirated to 20 μL. Next, 20 μL of a 2.3 μM stock of Fluo-4/acetoxymethyl ester (Invitrogen, Carlsbad, CA), prepared as a 2.3 mM stock in DMSO and mixed in a 1:1 ratio with 10% (w/v) Pluronic F-127 and diluted in assay buffer, was added to the wells and the cell plates were incubated for 50 min at 37° C. and 5% CO2. Dye was removed by washing with the ELX 405 and the final volume was aspirated to 20 μL. Compound master plates were formatted in a 10 point concentration-response curve (CRC) format (1:3 dilutions) in 100% DMSO with a starting concentration of 10 or 1 mM using a BRAVO liquid handler (Agilent). Test compound CRCs were then transferred to daughter plates (240 nL) using the Echo acoustic plate reformatter (Labcyte, Sunnyvale, CA) and then diluted into assay buffer (40 μL) to a 2× stock using a Thermo Fisher Combi (Thermo Fisher Scientific, Waltham, MA).
Calcium flux was measured using the Functional Drug Screening System (FDSS) 6000 or 7000 (Hamamatsu Corporation, Tokyo, Japan) as an increase in the fluorescent static ratio. Compounds were applied to cells (20 μL, 2×) using the automated system of the FDSS at 2 seconds into the protocol and the data were collected at 1 Hz. At 143 s, 10 μL of an EC20 concentration of the muscarinic receptor agonist acetylcholine was added (5×), followed by the addition of 12 μL of an EC80 concentration of acetylcholine at the 268 s time point (5×). Agonist activity was analyzed as a concentration-dependent increase in calcium mobilization upon compound addition. Positive allosteric modulator activity was analyzed as a concentration-dependent increase in the EC20 acetylcholine response. Antagonist activity was analyzed as a concentration-dependent decrease in the EC80 acetylcholine response; for the purposes of the tables herein, an IC50 (inhibitory concentration 50) was calculated as a concentration-dependent decrease of the response elicited by an EC80 concentration of acetylcholine. Concentration-response curves were generated using a four-parameter logistical equation in XLFit curve fitting software (IDBS, Bridgewater, NJ) for Excel (Microsoft, Redmond, WA) or Prism (GraphPad Software, Inc., San Diego, CA) or the Dotmatics software platform (Dotmatics, Bishop's Stortford, UK).
Compounds were synthesized as described above. Activity (IC50 and Emin) was determined in the mAChR M4 cell-based functional assay as described above and the data are shown in Table 2.

Where [1] appears, read: M4/Gqi5/CHO-K1 cells, % ACh maximum at 30 μM, read-out: Human M4 Emin (% ACh maximum at 30 μM).
Setting [2] is: M4/Gqi5/CHO-K1 cells, % ACh maximum at 30 μM.
[3] abbreviates: CHO-K1, read-out: Human M4 Emin (% ACh maximum at 30 μM).

Like-named read-outs stand apart in the source and are kept apart here.

The values that follow come from patent US20240228468A1, “N-(6-((OCTAHYDROCYCLOPENTA[C]PYRROL-5-YI)AMINO)PYRIDAZIN-3-YL)PHENYL)CARBOXAMIDE AND (6- ((OCTAHYDROCYCLOPENTA[C]PYRROL-5-YL)AMINO)PYRIDAZIN-3-YL)BENZAMIDE DERIVATIVES AS MACHR M4 ANTAGONISTS FOR THE TREATMENT OF NEURODEGENERATIVE DISORDERS” (Vanderbilt University, priority 2021, published 2024).

`CC(=O)Nc1cccc(-c2ccc(N[C@H]3C[C@@H]4CN(CC5CCOCC5)C[C@@H]4C3)nn2)c1` [Compound A29, N-(3-(6-(((3aR,5s,6aS)-2-((tetrahydro-2H-pyran-4-yl)methyl)octahydrocyclopenta[c]pyrrol-5-yl)amino)pyridazin-3-yl)phenyl)acetamide]: the remaining activity at 30 µM under setting [1] came to 3%. Moreover, the IC50 (M4/Gqi5/CHO-K1 cells) came out at 34 nM.
`[2H]C([2H])(C1CCOCC1)N1C[C@H]2C[C@H](Nc3ccc(-c4cc(F)cc(C(=O)NC)c4)nn3)C[C@H]2C1` [Compound A71, 3-Fluoro-N-methyl-5-(6-(((3aR,5s,6aS)-2-((tetrahydro-2H-pyran-4-yl)methyl-d2)octahydrocyclopenta[c]pyrrol-5-yl)amino)pyridazin-3-yl)benzamide]: the remaining activity at 30 µM under setting [1] turned out to be 4%. Also, for the setting “M4/Gqi5/CHO-K1 cells”, the IC50 came to 14 nM.
The matching figures for `CC(=O)Nc1ccc(-c2ccc(N[C@H]3C[C@@H]4CN(CC5(C)COC5)C[C@@H]4C3)nn2)cc1` [Compound A6, N-(4-(6-(((3aR,5s,6aS)-2-((3-methyloxetan-3-yl)methyl)octahydrocyclopenta[c]pyrrol-5-yl)amino)pyridazin-3-yl)phenyl)acetamide]: 16% and 4600 nM.
The matching figures for `[2H]C([2H])(C1CCOCC1)N1C[C@H]2C[C@H](Nc3ccc(-c4ccc(NC(=O)CC)cc4)nn3)C[C@H]2C1` [Compound A40, N-(4-(6-(((3aR,5s,6aS)-2-((tetrahydro-2H-pyran-4-yl)methyl-d2)octahydrocyclopenta[c]pyrrol-5-yl)amino)pyridazin-3-yl)phenyl)propionamide]: 3% and 2.5 nM.
Turning to `[2H]C([2H])([2H])C(=O)Nc1ccccc1-c1ccc(N[C@H]2C[C@@H]3CN(CC4CCOCC4)C[C@@H]3C2)nn1` [Compound B3, N-(2-(6-(((3aR,5s,6aS)-2-((tetrahydro-2H-pyran-4-yl)methyl)octahydrocyclopenta [c]pyrrol-5-yl)amino)pyridazin-3-yl)phenyl) acetamide-2,2,2-d3], the “Human M4 Emin (% ACh maximum at 30 μM)” value under setting [2] was 4%. Also, the IC50 (M4/Gqi5/CHO-K1 cells) was 120 nM.
Regarding `O=C(Nc1cc(F)c(F)c(-c2ccc(N[C@H]3C[C@@H]4CN(CC5CCOCC5)C[C@@H]4C3)nn2)c1)C1(C(F)(F)F)CC1` [Compound A11, N-(3,4-difluoro-5-(6-(((3aR,5s,6aS)-2-((tetrahydro-2H-pyran-4-yl)methyl)octahydrocyclopenta[c]pyrrol-5-yl)amino)pyridazin-3-yl)phenyl)-1-(trifluoromethyl)cyclopropane-1-carboxamide], the remaining activity at 30 µM under setting [1] came out at 3%. Besides, the IC50 (M4/Gqi5/CHO-K1 cells) is 66 nM.
For `O=C(Nc1cc(F)c(F)c(-c2ccc(N[C@H]3C[C@@H]4CN(CC5CCOCC5)C[C@@H]4C3)nn2)c1)C1CC(F)(F)C1` [Compound A14, N-(3,4-difluoro-5-(6-(((3aR,5s,6aS)-2-((tetrahydro-2H-pyran-4-yl)methyl)octahydrocyclopenta[c]pyrrol-5-yl)amino)pyridazin-3-yl)phenyl)-3,3-difluorocyclobutane-1-carboxamide], in that order: 4% and 160 nM.
Turning to `[2H]C([2H])(C1CCOCC1)N1C[C@H]2C[C@H](Nc3ccc(-c4cccc(C(=O)NC)c4)nn3)C[C@H]2C1` (single isomer, unassigned) [Compound A42], the remaining activity at 30 µM under setting [3] is 14%. Besides, where the note is “M4/Gqi5/CHO-K1 cells”, the IC50 is 400 nM.
For the compound `CCNC(=O)c1ccccc1-c1ccc(N[C@H]2C[C@@H]3CN(CC4CCOCC4)C[C@@H]3C2)nn1` [Compound A58, N-ethyl-2-(6-(((3aR,5s,6aS)-2-((tetrahydro-2H-pyran-4-yl)methyl)octahydrocyclopenta[c]pyrrol-5-yl)amino)pyridazin-3-yl)benzamide], the remaining activity at 30 µM under setting [1] stood at 6%. Further, the IC50 (M4/Gqi5/CHO-K1 cells) is 200 nM.
For `O=C(c1cc(F)c(F)c(-c2ccc(N[C@H]3C[C@@H]4CN(CC5CCOCC5)C[C@@H]4C3)nn2)c1)N1CCOCC1` [Compound A10, (3,4-difluoro-5-(6-(((3aR,5s,6aS)-2-((tetrahydro-2H-pyran-4-yl)methyl)octahydrocyclopenta[c]pyrrol-5-yl)amino)pyridazin-3-yl)phenyl)(morpholino)methanone], in that order: 3% and 82 nM.
Turning to “N-methyl-3-(6-(((3aR,5s,6aS)-2-(((S)- tetrahydro-2H-pyran-2-yl)methyl- d2)octahydrocyclopenta[c]pyrrol-5- yl)amino)pyridazin-3-yl)benzamide [Compound A80]”, the “Human M4 Emin (% ACh maximum at 30 μM)” value under setting [2] stood at 4%. Also, the concentration for half-maximal inhibition (IC50) (M4/Gqi5/CHO-K1 cells) worked out at 1.4 nM.
`[2H]C([2H])(C1CCOCC1)N1C[C@H]2C[C@H](Nc3ccc(-c4cccc(NC(C)=O)c4)nn3)C[C@H]2C1` [Compound A31, N-(3-(6-(((3aR,5s,6aS)-2-((tetrahydro-2H-pyran-4-yl)methyl-d2)octahydrocyclopenta[c]pyrrol-5-yl)amino)pyridazin-3-yl)phenyl)acetamide]: under setting [1], the remaining activity at 30 µM worked out at 3%. Besides, the IC50 (M4/Gqi5/CHO-K1 cells) is 11 nM.
In the case of `O=C(NC12CC(C1)C2)c1cc(F)c(F)c(-c2ccc(N[C@H]3C[C@@H]4CN(CC5CCOCC5)C[C@@H]4C3)nn2)c1` [Compound A18, N-(Bicyclo[1.1.1]pentan-1-yl)-3,4-difluoro-5-(6-(((3aR,5s,6aS)-2-((tetrahydro-2H-pyran-4-yl)methyl)octahydrocyclopenta[c]pyrrol-5-yl)amino)pyridazin-3-yl)benzamide], the remaining activity at 30 µM under setting [3] was 3%. Also, where the note is “M4/Gqi5/CHO-K1 cells”, the IC50 was 27 nM.
For `CNC(=O)c1cccc(-c2ccc(N[C@H]3C[C@@H]4CN(CC5CCOCC5)C[C@@H]4C3)nn2)c1` [Compound A41, N-methyl-3-(6-(((3aR,5s,6aS)-2-((tetrahydro-2H-pyran-4-yl)methyl)octahydrocyclopenta[c]pyrrol-5-yl)amino)pyridazin-3-yl)benzamide], under setting [1], the remaining activity at 30 µM turned out to be 5%. In addition, the 50% inhibitory concentration (IC50) (M4/Gqi5/CHO-K1 cells) came out at 12 nM.
The matching figures for `[2H]C1([2H])CC(C([2H])([2H])N2C[C@H]3C[C@H](Nc4ccc(-c5cc(F)cc(C(=O)NC)c5)nn4)C[C@H]3C2)CC([2H])([2H])O1` [Compound A82, 3-fluoro-N-methyl-5-(6-(((3aR,5s,6aS)-2-((tetrahydro-2H-pyran-4-yl-2,2,6,6-d4)methyl-d2)octahydrocyclopenta[c]pyrrol-5-yl)amino)pyridazin-3-yl)benzamide]: 5% and 29 nM.
In the case of `[2H]C([2H])([2H])C(=O)Nc1ccc(-c2ccc(N[C@H]3C[C@@H]4CN(CC5CCOCC5)C[C@@H]4C3)nn2)cc1` (single isomer, unassigned) [Compound B5], the “Human M4 Emin (% ACh maximum at 30 μM)” value under setting [2] stood at 3%. The IC50 (M4/Gqi5/CHO-K1 cells) was 2.4 nM.
